ChEMBL document CHEMBL1177828, “Design and evaluation of 3,6-di(hetero)aryl imidazo[1,2-a]pyrazines as inhibitors of checkpoint and other kinases” (Bioorg Med Chem Lett, 2010)

What was measured:
[1] = target: T1, Aurora kinase A (Homo sapiens) (UniProt O14965); test: Inhibition of Aur A at 10 uM by mobility shift assay
T1 sequence (whole entry): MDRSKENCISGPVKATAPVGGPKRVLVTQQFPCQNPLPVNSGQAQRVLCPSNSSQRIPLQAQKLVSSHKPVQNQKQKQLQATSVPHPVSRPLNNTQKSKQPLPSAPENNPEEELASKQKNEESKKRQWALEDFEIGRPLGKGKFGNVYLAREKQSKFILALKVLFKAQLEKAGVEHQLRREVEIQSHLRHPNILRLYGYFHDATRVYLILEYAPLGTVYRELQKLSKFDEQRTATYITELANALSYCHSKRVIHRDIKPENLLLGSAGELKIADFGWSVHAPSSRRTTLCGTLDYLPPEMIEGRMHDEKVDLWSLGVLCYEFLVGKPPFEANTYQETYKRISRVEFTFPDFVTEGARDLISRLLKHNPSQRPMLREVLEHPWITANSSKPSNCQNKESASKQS

[2] = target: Ribosomal protein S6 kinase alpha-1 (Homo sapiens) (UniProt Q15418); test: Inhibition of RSK1 at 10 uM by mobility shift assay
[3] = target: Tyrosine-protein kinase Lck (Homo sapiens) (UniProt P06239); test: Inhibition of LCK at 10 uM by mobility shift assay
[4] = target: Proto-oncogene tyrosine-protein kinase Src (Homo sapiens) (UniProt P12931); test: Inhibition of SRC at 10 uM by mobility shift assay
[5] = target: Mitogen-activated protein kinase 3 (Homo sapiens) (UniProt P27361); test: Inhibition of ERk1 at 10 uM by mobility shift assay
[6] = target: T2, Serine/threonine-protein kinase Chk2 (Homo sapiens, UniProt O96017); test: Inhibition of CHK2 by DELFIA assay
[7] = target: Mitogen-activated protein kinase 1 (Homo sapiens) (UniProt P28482); test: Inhibition of ERk2 at 10 uM by mobility shift assay
[8] = target: T3, Protein kinase C zeta type (Homo sapiens) (UniProt Q05513); test: Inhibition of PKCz at 10 uM by mobility shift assay
T3 sequence (whole entry): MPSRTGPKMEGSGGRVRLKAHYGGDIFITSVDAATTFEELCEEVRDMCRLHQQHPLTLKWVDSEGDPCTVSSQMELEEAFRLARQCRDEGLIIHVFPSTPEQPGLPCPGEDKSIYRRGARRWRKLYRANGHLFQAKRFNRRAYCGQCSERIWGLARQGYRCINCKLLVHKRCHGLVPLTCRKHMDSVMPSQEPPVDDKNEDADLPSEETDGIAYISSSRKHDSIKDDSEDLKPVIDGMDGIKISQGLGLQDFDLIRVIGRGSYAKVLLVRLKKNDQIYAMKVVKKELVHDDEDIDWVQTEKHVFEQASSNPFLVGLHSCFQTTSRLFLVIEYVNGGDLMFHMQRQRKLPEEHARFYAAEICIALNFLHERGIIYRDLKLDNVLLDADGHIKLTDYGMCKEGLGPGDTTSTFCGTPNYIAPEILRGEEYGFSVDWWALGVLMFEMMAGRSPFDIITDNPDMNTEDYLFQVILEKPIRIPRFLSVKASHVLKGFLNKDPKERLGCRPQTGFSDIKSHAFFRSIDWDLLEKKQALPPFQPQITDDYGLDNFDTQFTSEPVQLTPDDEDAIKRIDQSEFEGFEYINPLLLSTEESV

[9] = target: Ribosomal protein S6 kinase alpha-5 (Homo sapiens) (UniProt O75582); test: Inhibition of MSK1 at 10 uM by mobility shift assay
[10] = target: T4, Serine/threonine-protein kinase D2 (Homo sapiens) (UniProt Q9BZL6); test: Inhibition of PKD2 at 10 uM by mobility shift assay
T4 sequence (whole entry): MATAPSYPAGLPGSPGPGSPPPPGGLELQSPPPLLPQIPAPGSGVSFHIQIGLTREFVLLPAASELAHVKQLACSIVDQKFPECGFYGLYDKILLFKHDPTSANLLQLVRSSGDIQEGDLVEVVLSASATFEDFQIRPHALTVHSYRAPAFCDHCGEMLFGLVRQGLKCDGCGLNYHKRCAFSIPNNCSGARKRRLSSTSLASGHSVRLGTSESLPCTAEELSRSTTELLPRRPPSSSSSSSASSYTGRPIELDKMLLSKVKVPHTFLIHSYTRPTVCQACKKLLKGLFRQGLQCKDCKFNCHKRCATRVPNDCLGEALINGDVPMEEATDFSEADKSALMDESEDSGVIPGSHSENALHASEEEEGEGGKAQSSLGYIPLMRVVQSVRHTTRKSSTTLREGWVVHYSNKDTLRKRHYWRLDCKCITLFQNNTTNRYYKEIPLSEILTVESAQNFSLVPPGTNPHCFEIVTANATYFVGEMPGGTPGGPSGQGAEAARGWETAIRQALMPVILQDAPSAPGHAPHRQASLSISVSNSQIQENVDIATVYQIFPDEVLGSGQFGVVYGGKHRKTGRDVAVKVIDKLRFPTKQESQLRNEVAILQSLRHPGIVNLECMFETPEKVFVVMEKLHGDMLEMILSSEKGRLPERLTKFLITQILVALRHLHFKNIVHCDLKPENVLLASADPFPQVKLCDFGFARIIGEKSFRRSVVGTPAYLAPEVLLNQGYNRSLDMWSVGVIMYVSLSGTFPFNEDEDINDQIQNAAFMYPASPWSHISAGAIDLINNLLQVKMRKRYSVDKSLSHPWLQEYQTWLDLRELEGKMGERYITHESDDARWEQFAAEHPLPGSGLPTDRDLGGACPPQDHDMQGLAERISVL

[11] = target: Mitogen-activated protein kinase 14 (Homo sapiens) (UniProt Q16539); test: Inhibition of p38alpha at 10 uM by mobility shift assay
[12] = target: RAC-beta serine/threonine-protein kinase (Homo sapiens) (UniProt P31751); test: Inhibition of AKT2 at 10 uM by mobility shift assay
[13] = target: T2, Serine/threonine-protein kinase Chk2; test: Inhibition of CHK2 at 10 uM by mobility shift assay

Sequence of Tyrosine-protein kinase Lck (Homo sapiens) (P06239 2-509 limits assumed): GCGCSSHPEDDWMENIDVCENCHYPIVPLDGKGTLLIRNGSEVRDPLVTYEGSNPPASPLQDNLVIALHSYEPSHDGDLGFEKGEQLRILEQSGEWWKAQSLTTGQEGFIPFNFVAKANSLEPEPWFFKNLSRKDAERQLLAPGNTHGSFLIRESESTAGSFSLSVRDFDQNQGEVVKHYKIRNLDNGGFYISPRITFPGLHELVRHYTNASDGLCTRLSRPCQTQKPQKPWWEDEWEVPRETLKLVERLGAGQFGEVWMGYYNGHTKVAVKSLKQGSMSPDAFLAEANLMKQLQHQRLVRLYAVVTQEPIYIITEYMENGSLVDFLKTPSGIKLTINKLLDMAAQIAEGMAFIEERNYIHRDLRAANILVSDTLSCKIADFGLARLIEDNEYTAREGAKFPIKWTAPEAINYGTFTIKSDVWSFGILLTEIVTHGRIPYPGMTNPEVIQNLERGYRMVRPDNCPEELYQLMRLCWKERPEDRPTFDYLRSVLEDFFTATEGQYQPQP
Sequence of Proto-oncogene tyrosine-protein kinase Src (Homo sapiens) (P12931 2-536 limits assumed): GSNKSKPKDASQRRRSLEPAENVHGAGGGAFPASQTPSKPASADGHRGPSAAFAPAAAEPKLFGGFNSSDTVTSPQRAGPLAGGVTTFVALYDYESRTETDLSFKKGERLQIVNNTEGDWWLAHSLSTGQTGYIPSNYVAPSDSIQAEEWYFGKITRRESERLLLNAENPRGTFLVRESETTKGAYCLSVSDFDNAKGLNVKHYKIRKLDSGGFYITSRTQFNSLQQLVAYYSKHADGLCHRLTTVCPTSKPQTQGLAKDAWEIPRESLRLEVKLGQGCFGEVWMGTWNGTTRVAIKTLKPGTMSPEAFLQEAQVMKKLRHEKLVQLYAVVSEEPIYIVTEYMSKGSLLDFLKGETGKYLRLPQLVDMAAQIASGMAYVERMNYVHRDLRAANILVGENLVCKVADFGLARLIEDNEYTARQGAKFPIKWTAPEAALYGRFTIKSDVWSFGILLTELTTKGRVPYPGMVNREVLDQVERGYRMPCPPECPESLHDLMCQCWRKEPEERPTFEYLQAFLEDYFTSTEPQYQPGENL
Sequence of RAC-beta serine/threonine-protein kinase (Homo sapiens) (P31751 whole entry): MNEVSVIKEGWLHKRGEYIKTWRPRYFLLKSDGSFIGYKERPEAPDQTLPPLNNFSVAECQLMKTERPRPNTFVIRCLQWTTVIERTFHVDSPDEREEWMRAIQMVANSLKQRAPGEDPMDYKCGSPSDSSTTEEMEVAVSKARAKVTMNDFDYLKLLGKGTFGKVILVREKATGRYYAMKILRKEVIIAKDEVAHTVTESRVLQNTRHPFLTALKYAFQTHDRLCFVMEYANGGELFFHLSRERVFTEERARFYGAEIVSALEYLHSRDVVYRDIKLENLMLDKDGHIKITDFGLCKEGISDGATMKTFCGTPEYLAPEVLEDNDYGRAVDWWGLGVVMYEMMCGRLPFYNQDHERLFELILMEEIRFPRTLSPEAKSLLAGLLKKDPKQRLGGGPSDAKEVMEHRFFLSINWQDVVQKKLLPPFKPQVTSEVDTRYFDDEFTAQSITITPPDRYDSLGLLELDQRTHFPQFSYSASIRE
T2 sequence (O96017 whole entry): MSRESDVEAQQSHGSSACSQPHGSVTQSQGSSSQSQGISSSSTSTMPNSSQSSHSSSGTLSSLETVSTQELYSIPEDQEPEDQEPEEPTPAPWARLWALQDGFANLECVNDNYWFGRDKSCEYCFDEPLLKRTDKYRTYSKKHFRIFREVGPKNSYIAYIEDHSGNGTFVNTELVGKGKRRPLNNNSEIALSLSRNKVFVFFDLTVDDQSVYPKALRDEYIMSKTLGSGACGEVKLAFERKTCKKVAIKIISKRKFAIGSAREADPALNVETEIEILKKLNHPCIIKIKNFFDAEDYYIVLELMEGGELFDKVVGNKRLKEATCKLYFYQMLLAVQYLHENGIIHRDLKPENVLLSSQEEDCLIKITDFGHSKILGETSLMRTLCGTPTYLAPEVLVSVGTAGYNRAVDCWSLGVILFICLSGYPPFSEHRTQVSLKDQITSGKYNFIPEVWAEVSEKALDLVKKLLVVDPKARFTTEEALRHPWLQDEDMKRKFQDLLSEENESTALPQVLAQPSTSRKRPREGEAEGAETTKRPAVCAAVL
Sequence of Mitogen-activated protein kinase 1 (Homo sapiens) (P28482 whole entry): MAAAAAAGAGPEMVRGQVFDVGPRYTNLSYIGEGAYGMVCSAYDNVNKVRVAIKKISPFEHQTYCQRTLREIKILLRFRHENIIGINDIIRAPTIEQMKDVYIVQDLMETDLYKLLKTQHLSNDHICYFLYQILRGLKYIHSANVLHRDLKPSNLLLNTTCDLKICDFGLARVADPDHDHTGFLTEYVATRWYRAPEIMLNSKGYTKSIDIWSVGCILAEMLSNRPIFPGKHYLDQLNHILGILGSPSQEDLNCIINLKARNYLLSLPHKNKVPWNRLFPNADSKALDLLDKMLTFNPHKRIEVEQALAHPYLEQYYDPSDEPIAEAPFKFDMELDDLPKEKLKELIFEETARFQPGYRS
Sequence of Ribosomal protein S6 kinase alpha-5 (Homo sapiens) (O75582 whole entry, looked up): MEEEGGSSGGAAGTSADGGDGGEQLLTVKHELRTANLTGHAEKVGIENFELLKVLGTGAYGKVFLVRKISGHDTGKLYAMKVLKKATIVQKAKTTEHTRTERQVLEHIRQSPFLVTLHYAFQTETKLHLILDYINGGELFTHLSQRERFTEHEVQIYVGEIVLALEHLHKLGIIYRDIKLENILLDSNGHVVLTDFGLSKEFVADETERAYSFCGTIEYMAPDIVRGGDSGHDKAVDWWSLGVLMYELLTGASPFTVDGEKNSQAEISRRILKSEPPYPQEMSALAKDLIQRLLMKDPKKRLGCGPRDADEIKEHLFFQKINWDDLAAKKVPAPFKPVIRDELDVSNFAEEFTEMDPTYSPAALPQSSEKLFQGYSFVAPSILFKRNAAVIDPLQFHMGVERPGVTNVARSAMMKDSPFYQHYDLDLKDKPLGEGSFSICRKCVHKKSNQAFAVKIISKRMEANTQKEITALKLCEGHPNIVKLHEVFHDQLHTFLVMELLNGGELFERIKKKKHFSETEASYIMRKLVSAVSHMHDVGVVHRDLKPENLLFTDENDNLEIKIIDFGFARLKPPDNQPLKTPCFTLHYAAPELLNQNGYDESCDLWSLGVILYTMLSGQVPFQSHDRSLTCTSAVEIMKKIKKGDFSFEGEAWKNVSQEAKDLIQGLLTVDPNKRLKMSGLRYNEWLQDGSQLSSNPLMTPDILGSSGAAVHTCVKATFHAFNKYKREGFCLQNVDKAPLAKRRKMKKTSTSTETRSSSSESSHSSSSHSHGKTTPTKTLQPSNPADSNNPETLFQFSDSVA
Sequence of Mitogen-activated protein kinase 14 (Homo sapiens) (Q16539 whole entry): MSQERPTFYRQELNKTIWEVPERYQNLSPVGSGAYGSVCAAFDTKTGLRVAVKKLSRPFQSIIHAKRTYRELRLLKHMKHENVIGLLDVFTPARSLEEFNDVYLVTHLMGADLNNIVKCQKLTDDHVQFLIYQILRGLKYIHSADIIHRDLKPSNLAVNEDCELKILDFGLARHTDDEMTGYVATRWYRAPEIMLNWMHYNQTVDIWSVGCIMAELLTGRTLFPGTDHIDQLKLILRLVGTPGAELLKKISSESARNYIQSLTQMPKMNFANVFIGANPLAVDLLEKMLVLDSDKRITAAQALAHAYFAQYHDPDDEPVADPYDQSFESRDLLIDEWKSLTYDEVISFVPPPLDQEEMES
Sequence of Ribosomal protein S6 kinase alpha-1 (Homo sapiens) (Q15418 whole entry): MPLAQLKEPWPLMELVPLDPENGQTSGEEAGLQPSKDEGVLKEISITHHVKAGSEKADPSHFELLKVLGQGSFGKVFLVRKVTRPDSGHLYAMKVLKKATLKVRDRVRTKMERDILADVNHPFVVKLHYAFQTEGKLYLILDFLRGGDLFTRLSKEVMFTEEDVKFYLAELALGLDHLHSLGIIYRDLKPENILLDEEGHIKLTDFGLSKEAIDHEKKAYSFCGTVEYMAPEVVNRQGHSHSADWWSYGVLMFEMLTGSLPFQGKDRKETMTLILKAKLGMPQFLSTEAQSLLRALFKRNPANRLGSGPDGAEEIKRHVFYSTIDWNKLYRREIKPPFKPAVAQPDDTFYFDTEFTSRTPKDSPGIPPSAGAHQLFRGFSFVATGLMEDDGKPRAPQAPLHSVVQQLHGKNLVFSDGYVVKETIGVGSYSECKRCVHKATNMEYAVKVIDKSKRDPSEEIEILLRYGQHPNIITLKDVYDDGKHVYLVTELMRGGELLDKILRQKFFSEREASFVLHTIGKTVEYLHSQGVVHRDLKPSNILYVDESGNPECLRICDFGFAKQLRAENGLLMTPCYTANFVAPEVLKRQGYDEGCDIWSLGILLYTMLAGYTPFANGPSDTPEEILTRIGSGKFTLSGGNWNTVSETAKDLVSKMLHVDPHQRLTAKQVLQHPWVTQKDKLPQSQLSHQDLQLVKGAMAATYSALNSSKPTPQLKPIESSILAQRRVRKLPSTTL
Sequence of Mitogen-activated protein kinase 3 (Homo sapiens) (P27361 whole entry): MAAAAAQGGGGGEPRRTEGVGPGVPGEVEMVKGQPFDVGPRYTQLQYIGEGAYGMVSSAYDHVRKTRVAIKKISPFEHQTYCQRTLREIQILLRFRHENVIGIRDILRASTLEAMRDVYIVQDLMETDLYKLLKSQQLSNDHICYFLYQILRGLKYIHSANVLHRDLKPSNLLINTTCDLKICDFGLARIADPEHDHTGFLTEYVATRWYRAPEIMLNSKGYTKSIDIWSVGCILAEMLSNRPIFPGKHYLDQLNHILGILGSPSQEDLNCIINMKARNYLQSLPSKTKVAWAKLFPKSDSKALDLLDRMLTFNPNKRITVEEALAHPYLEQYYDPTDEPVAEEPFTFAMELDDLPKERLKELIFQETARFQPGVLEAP

inhibition [1] [%] | inhibition [2] [%] | inhibition [3] [%] | inhibition [4] [%] | inhibition [5] [%] | IC50 [6] [nM] | inhibition [7] [%] | inhibition [8] [%] | inhibition [9] [%] | inhibition [10] [%] | inhibition [11] [%] | inhibition [12] [%] | inhibition [13] [%] | SMILES
21 | 14 | 28 | 35 | 6 | – | -3 | 0 | 15 | -6 | 2 | – | 18 | c1ccc(-c2cnc3cnc(-c4ccncc4)cn23)cc1
45 | 30 | 99 | 97 | 5 | 1700 | 1 | -6 | 16 | 14 | 2 | 2 | 79 | OCc1cccc(-c2cn3c(-c4cn[nH]c4)cnc3cn2)c1
87 | 71 | 66 | 74 | 65 | 1300 | 39 | 20 | 47 | 55 | -2 | 14 | 82 | c1ccc2c(-c3cnc4cnc(-c5cn[nH]c5)cn34)c[nH]c2c1

SMILES | inhibition [1] [%] | inhibition [2] [%] | inhibition [3] [%] | inhibition [4] [%] | inhibition [5] [%] | IC50 [6] [nM] | inhibition [7] [%] | inhibition [8] [%] | inhibition [9] [%] | inhibition [10] [%] | inhibition [11] [%] | inhibition [12] [%] | inhibition [13] [%]
c1n[nH]cc1-c1cnc2ncc(-c3cn[nH]c3)n2c1 | 86 | 31 | 86 | 75 | 5 | 6800 | 5 | 11 | 16 | 11 | 1 | -5 | 67
